In patent US7811352B2, “Fertilizer compositions and methods of using” (priority 2005, dated 2010):

Tests used:
[1] = tested on: Moonlight Kentucky bluegrass; assay: Phytotoxic injury rating, Kentucky bluegrass lawn (Example 17); type: in vivo
Description: In this Example, the effect of a fertilizer comprising lysine on cool season lawn variety turfgrass growth was examined. The effects of lysine (HCl) and LIQUID LYSINE on a common variety of law turfgrass (Moonlight Kentucky bluegrass) were compared with those of urea, Milorganite and a blended fertilizer (a blend of methylene urea and urea in an approximately 1:1 ratio).
Fifteen fertilizer treatments comprising three concentrations of each fertilizer composition (Milorganite N—P—K, 6-2-0), urea (N—P—K, 46-0-0), a blended fertilizer, LIQUID LYSINE (N—P—K, 10-2-1), and lysine (HCl) (N—P—K, 15-2-1)) were prepared and applied to 3 replications of newly established “Moonlight” variety Kentucky bluegrass lawn turfgrass. The urea, lysine (HCl), and LIQUID LYSINE were dissolved/suspended in 1.5 gal water prior to application. […], […], The urea, LIQUID LYSINE and lysine (HCl) were applied as foliar liquids, while Milorganite and the blended fertilizer were applied as granular fertilizers. Plot size was 4 ft×8 ft laid out in a replicated complete block design. Plots were mowed at 2.0 inches before fertilizer application and mowed two times per week to 2.0 inch height. Grass clippings were not removed from the plots and no supplemental cultural maintenance or pest management was applied. Irrigation (0.15 inch) was applied following application and thereafter only when necessary to insure survival of the turf. Plots were rated for turfgrass quality (scale of 1-9 where 9=dark green turf, 1=dead/brown turf, and 6=minimally acceptable turf) and phytotoxic injury (scale of 0-9 where 9=significant foliar injury and 2=minimally objectionable foliar injury) throughout the study period. Quality was measured prior to application (day 0) and day 37, day 70 and day 95 after application. Injury was measured on day 37 and day 70 after application. In addition, blade density of the grass was measured on day 70 after application (scale of 1-9, where 9=very dense turf, 1=low density turf). All data was subject to statistical analysis and significant means were determined.

[2] = tested on: Floratam St. Augustine grass; assay: Turfgrass quality and color ratings, St. Augustine grass (Example 9); type: in vivo; design: key: 1-10 scale: 10 = dark green turf, 1 = dead/brown, 6 = minimally acceptable; conditions: scale 1-10
Description: In this Example, the effect of a fertilizer comprising lysine on warn season turfgrass growth was examined. The effects of lysine (HCl) and LIQUID LYSINE on a common type of lawn quality turfgrass (St. Augustine grass) were compared with those of urea and Milorganite. St. Augustine grass is a commonly utilized turfgrass throughout the warm, tropical zones for lawn turf and is a commercially significant species.
Twelve fertilizer treatments comprising three concentrations of each fertilizer composition (Milorganite (N—P—K, 6-2-0), urea N—P—K, 46-0-0), LIQUID LYSINE (N—P—K, 10-2-1), and lysine (HCl) (N—P—K, 15-2-1)) were prepared and applied to 4 replications of Floratam St. Augustine grass. The lysine (HCl) was dissolved in water prior to application. Each fertilizer treatment was applied in concentrations of 0.5 lb N/1000 ft^2/month, 1.0 lb N/1000 ft^2/month and 3.0 lb N/1000 ft^2/month. The urea, LIQUID LYSINE and lysine (HCl) were applied as foliar liquids, while Milorganite was applied as a granular fertilizer. Plot size was 1 m×2 m set up as a randomized complete block. Plots were mowed at 3.0 inches before fertilizer application. Irrigation (0.15 inch) was applied following application. Plots were rated for turfgrass quality and color (scale of 1-10 where 10=dark green turf, 1=dead/brown turf; and 6=minimally acceptable turf) and phytotoxicity (scale of 0-5, where 5=worst, and 2=minimally objectionable) throughout the study period. Quality, color, and phytotoxicity were measured on 2 days before application (day −2) and day 2, day 5, day 15 and day 21 after application. All data was subject to statistical analysis and significant means were determined. Average turfgrass quality ratings for the treatments are presented in Table 6 and the quality results for application rates of 1.0 lb N/1000 ft^2/month are graphically presented in FIG. 2.

[3] = Weekly Rate 0.5 lbs N/1000 ft^2, Day 37
[4] = Weekly Rate 0.5 lbs N/1000 ft^2, Day 70
[5] = Weekly Rate 1.0 lbs N/1000 ft^2, Day 37
[6] = Weekly Rate 1.0 lbs N/1000 ft^2, Day 70
[7] = Weekly Rate 3.0 lbs N/1000 ft^2, Day 37
[8] = Weekly Rate 3.0 lbs N/1000 ft^2, Day 70
[9] = Monthly Rate 0.5 lbs N/1000 ft^2, Day 2
[10] = Monthly Rate 0.5 lbs N/1000 ft^2, Day 5
[11] = Monthly Rate 0.5 lbs N/1000 ft^2, Day 15
[12] = Monthly Rate 0.5 lbs N/1000 ft^2, Day 21
[13] = Monthly Rate 0.5 lbs N/1000 ft^2, Day −2 (before application)
[14] = Monthly Rate 1.0 lbs N/1000 ft^2, Day 2
[15] = Monthly Rate 1.0 lbs N/1000 ft^2, Day 5
[16] = Monthly Rate 1.0 lbs N/1000 ft^2, Day 15
[17] = Monthly Rate 1.0 lbs N/1000 ft^2, Day 21
[18] = Monthly Rate 1.0 lbs N/1000 ft^2, Day −2 (before application)
[19] = Monthly Rate 3.0 lbs N/1000 ft^2, Day 2
[20] = Monthly Rate 3.0 lbs N/1000 ft^2, Day 5
[21] = Monthly Rate 3.0 lbs N/1000 ft^2, Day 15
[22] = Monthly Rate 3.0 lbs N/1000 ft^2, Day 21
[23] = Monthly Rate 3.0 lbs N/1000 ft^2, Day −2 (before application)

NC(N)=O [Urea, urea, reference compound]
Injury Rating - Kentucky Bluegrass [1, 3]: 1.0e
Injury Rating - Kentucky Bluegrass [1, 4]: 5.0c
Injury Rating - Kentucky Bluegrass [1, 5]: 1.3e
Injury Rating - Kentucky Bluegrass [1, 6]: 5.7bc
Injury Rating - Kentucky Bluegrass [1, 7]: 3.3bc
Injury Rating - Kentucky Bluegrass [1, 8]: 7.0ab
Color Ratings - St. Augustine Grass [2, 9]: 6.9
Quality Ratings - St. Augustine Grass [2, 9]: 6.8
Color Ratings - St. Augustine Grass [2, 10]: 7.4cd
Quality Ratings - St. Augustine Grass [2, 10]: 7.1bcd
Color Ratings - St. Augustine Grass [2, 11]: 7.8bc
Quality Ratings - St. Augustine Grass [2, 11]: 7.6def
Color Ratings - St. Augustine Grass [2, 12]: 7.6bc
Quality Ratings - St. Augustine Grass [2, 12]: 7.6bc
Color Ratings - St. Augustine Grass [2, 13]: 6.4
Quality Ratings - St. Augustine Grass [2, 13]: 6.3
Color Ratings - St. Augustine Grass [2, 14]: 6.9
Quality Ratings - St. Augustine Grass [2, 14]: 6.8
Color Ratings - St. Augustine Grass [2, 15]: 7.6bc
Quality Ratings - St. Augustine Grass [2, 15]: 7.5ab
Color Ratings - St. Augustine Grass [2, 16]: 7.5cde
Quality Ratings - St. Augustine Grass [2, 16]: 7.9cde
Color Ratings - St. Augustine Grass [2, 17]: 7.9abc
Quality Ratings - St. Augustine Grass [2, 17]: 7.6bc
Color Ratings - St. Augustine Grass [2, 18]: 6.4
Quality Ratings - St. Augustine Grass [2, 18]: 6.3
Color Ratings - St. Augustine Grass [2, 19]: 6.8
Quality Ratings - St. Augustine Grass [2, 19]: 6.9
Color Ratings - St. Augustine Grass [2, 20]: 8.3a
Quality Ratings - St. Augustine Grass [2, 20]: 7.3abc
Color Ratings - St. Augustine Grass [2, 21]: 8.8a
Quality Ratings - St. Augustine Grass [2, 21]: 9.1ab
Color Ratings - St. Augustine Grass [2, 22]: 8.5a
Quality Ratings - St. Augustine Grass [2, 22]: 8.3a
Color Ratings - St. Augustine Grass [2, 23]: 6.1
Quality Ratings - St. Augustine Grass [2, 23]: 6.1

Cl.NCCCC[C@H](N)C(=O)O [Lys (HCl) 15% N, L-lysine monohydrochloride]
Injury Rating - Kentucky Bluegrass [1, 3]: 1.7de
Injury Rating - Kentucky Bluegrass [1, 4]: 5.0c
Injury Rating - Kentucky Bluegrass [1, 5]: 2.7cd
Injury Rating - Kentucky Bluegrass [1, 6]: 6.0abc
Injury Rating - Kentucky Bluegrass [1, 7]: 6.3a
Injury Rating - Kentucky Bluegrass [1, 8]: 7.0ab
Color Ratings - St. Augustine Grass [2, 9]: 6.5
Quality Ratings - St. Augustine Grass [2, 9]: 6.5
Color Ratings - St. Augustine Grass [2, 10]: 7.3cd
Quality Ratings - St. Augustine Grass [2, 10]: 7.1bcd
Color Ratings - St. Augustine Grass [2, 11]: 7.0ef
Quality Ratings - St. Augustine Grass [2, 11]: 7.3ef
Color Ratings - St. Augustine Grass [2, 12]: 7.4c
Quality Ratings - St. Augustine Grass [2, 12]: 7.3cd
Color Ratings - St. Augustine Grass [2, 13]: 6.6
Quality Ratings - St. Augustine Grass [2, 13]: 6.5
Color Ratings - St. Augustine Grass [2, 14]: 7.0
Quality Ratings - St. Augustine Grass [2, 14]: 6.6
Color Ratings - St. Augustine Grass [2, 15]: 7.6bc
Quality Ratings - St. Augustine Grass [2, 15]: 7.3abc
Color Ratings - St. Augustine Grass [2, 16]: 7.6cd
Quality Ratings - St. Augustine Grass [2, 16]: 7.9cde
Color Ratings - St. Augustine Grass [2, 17]: 8.0abc
Quality Ratings - St. Augustine Grass [2, 17]: 7.9ab
Color Ratings - St. Augustine Grass [2, 18]: 6.6
Quality Ratings - St. Augustine Grass [2, 18]: 6.4
Color Ratings - St. Augustine Grass [2, 19]: 6.6
Quality Ratings - St. Augustine Grass [2, 19]: 6.9
Color Ratings - St. Augustine Grass [2, 20]: 8.0ab
Quality Ratings - St. Augustine Grass [2, 20]: 7.5ab
Color Ratings - St. Augustine Grass [2, 21]: 8.6a
Quality Ratings - St. Augustine Grass [2, 21]: 9.3a
Color Ratings - St. Augustine Grass [2, 22]: 8.0abc
Quality Ratings - St. Augustine Grass [2, 22]: 7.9ab
Color Ratings - St. Augustine Grass [2, 23]: 6.6
Quality Ratings - St. Augustine Grass [2, 23]: 6.3
